Measurements from patent US20260027162A1, “MUCISPIRILLUM COMPOSITIONS AND CANCER TREATMENT METHODS THEREOF” (PRESIDENT AND FELLOWS OF HARVARD COLLEGE, priority 2022, published 2026).

Tested on: human NKT cells
Assay: XCL1 secretion from human NKT cells (ELISA)
Type: cell-based
Conditions: human NKT cell, FIG. 18
Procedure: Briefly, to generate human NKT cells the buffy coats from human donors' peripheral blood were obtained from RESEARCH BLOOD COMPONENTS LLC and separated using differential centrifugation on a FICOLL density gradient. Magnetically Isolated CD14^neg cells were cultured with 10 U/ml rhIL-2 for 5 days. Then, Vα24^+ hNKT cells were magnetically isolated and incubated for 2 days with mitomycin C-treated human dendritic cells loaded with α-galactosylceramide (α-GalCer)+20 U/ml rhIL-2. Then, the cells were harvested and further expanded for 10 days in complete RPMI medium+20 U/ml rhIL-2, with medium replacement every 2 days. Finally, the purity of Vα24Jα18^+ CD3^+ human NKT cells was estimated using flow cytometry (˜99%) and cells were frozen in complete RPMI medium+10% dimethyl sulfoxide (DMSO) at 5×10^6 cells per vial. For assaying the effect of M. schaedleri supernatant on human NKT cells, frozen cells were thawed and cultured in complete RPMI medium+rhIL-2 at cell density of 200,000 cells per well in a 96-well plate. The cells were treated with either sterile mBHI or M. schaedleri CDM at 20% volume per volume (v/v) for 16 h and then the culture supernatant was collected. As a positive control for activation, anti-human CD3 was used to stimulate the NKT cells. XCL1 concentration was measured using ONESTEP HUMAN XCL1 ELISA (ABCAM) according to the manufacturer's instructions. […]

O=C(O)c1cccnc1 [Pool 3, nicotinic acid]
NKT XCL1 production, metabolite pools: activity above that of the medium control
